# Results published in patent publication US20240218022A1, “ANTI-VISTA MACROCYCLIC PEPTIDES AND COMPOSITIONS” (BRISTOL-MYERS SQUIBB COMPANY, priority 2022, published 2024).
# Starred links: 1 amine or outer side, 2 acyl side, 3 side chain; linkers in the order of their positions; H or OH if unused. Positions of bridges follow the written chain, without caps; N, C: chain ends. Non-standard residues stand in square brackets, D forms with d. Residues, ends and D or L forms follow the SMILES beside them. ξ: configuration not given here. βAsp = O=C(O)[C@H](CC(=O)[*:2])N[*:1]; NMeThr(3ξ) = CN[C@H](C(=O)O)C(C)O; Ahp(2) = CCCCC[C@H](N)C(=O)O; NMeNle = CCCC[C@H](NC)C(=O)O; Tle = CC(C)(C)[C@H](N)C(=O)O; NMeV = CN[C@H](C(=O)O)C(C)C; NMeS = CN[C@@H](CO)C(=O)O; NHexGly = CCCCCCNCC(=O)O; Orn = NCCC[C@H](N)C(=O)O; Aun = NCCCCCCCCCCC(=O)O; AEEA = NCCOCCOCC(=O)O
# Molecular target: T1, mouse VISTA (mVISTA) (Mus musculus, UniProt Q9D659)
# T1 construct: expressed in transfected cells; host or cells: Human embryonic kidney 293T cells
# T1 sequence (Q9D659 33-308): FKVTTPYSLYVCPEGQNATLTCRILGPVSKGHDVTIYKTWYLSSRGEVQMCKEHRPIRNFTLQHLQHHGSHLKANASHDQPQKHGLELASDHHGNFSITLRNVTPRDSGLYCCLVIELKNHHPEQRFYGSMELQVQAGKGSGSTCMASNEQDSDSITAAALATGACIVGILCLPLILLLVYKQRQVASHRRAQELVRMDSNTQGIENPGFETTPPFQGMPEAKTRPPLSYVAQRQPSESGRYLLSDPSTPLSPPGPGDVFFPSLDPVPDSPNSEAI
# Assay: Cell-Based Binding High-Content Assay For mVISTA (HC CBA mVISTA)
# Details: cell-based binding high-content assay, mVISTA; read-out: HC CBA miPr ISTA IC50
# How it was run: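 mVISTA-293T, 4,000 cells/well; cpd ± washout step; biotin-peptide 2 nM final, 30 min RT; SA-Alexa 647 30 min; formaldehyde/Hoechst fix; HCS imaging; 4PL IC50.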
row,SMILES,IC50 [nM]
1,CCCCCCN1CC(=O)N[C@@H](Cc2ccc(O)cc2)C(=O)N[C@@H](CC(C)C)C(=O)N[C@@H](CC(N)=O)C(=O)N[C@@H](CCCNC(=N)N)C(=O)N(C)[C@@H](CO)C(=O)N[C@@H](CCCCC)C(=O)N2CCC[C@H]2C(=O)N[C@@H](C(C)(C)C)C(=O)N[C@@H](CO)C(=O)N[C@H](C(=O)N[C@@H](CC(=O)NCCOCCOCC(=O)N[C@@H](CC(=O)O)C(=O)NCCOCCOCC(=O)NCCCCCCCCCCC(=O)O)C(=O)O)CSCC(=O)N[C@@H](Cc2ccccc2)C(=O)N[C@@H](Cc2ccc(O)cc2)C(=O)N[C@@H](CC(=O)O)C1=O [compound 2033] ({CH2CO}-FYD[NHexGly]YLNR[NMeS][Ahp(2)]P[Tle]SC[βAsp][AEEA]D[AEEA][Aun]-OH; thioether N-14),18.4
2,CCCCCCN1CC(=O)N[C@@H](Cc2ccc(O)cc2)C(=O)N[C@@H](CC(C)C)C(=O)N[C@@H](CC(N)=O)C(=O)N[C@@H](CCCNC(=N)N)C(=O)N(C)[C@@H](CO)C(=O)N[C@@H](CCCCC)C(=O)N2CCC[C@H]2C(=O)N[C@@H](C(C)(C)C)C(=O)N[C@@H](CC(=O)O)C(=O)N[C@H](C(=O)N[C@@H](CC(=O)NCCOCCOCC(=O)N[C@@H](CC(=O)O)C(=O)NCCOCCOCC(=O)NCCCCCCCCCCC(=O)O)C(=O)O)CSCC(=O)N[C@@H](Cc2ccccc2)C(=O)N[C@@H](Cc2c[nH]c3ccccc23)C(=O)N[C@@H](CC(=O)O)C1=O [compound 2034] ({CH2CO}-FWD[NHexGly]YLNR[NMeS][Ahp(2)]P[Tle]DC[βAsp][AEEA]D[AEEA][Aun]-OH; thioether N-14),43.5
3,CCCCCCN1CC(=O)N[C@@H](Cc2ccc(O)cc2)C(=O)N[C@@H](CC(C)C)C(=O)N[C@@H](CC(N)=O)C(=O)N[C@@H](CCCNC(=N)N)C(=O)N(C)[C@@H](CO)C(=O)N[C@@H](CCCCC)C(=O)N2CCC[C@H]2C(=O)N[C@@H](C(C)(C)C)C(=O)N[C@@H](CC(=O)O)C(=O)N[C@H](C(=O)N[C@@H](CC(=O)NCCOCCOCC(=O)N[C@@H](CC(=O)O)C(=O)NCCOCCOCC(=O)NCCCCCCCCCCC(=O)O)C(=O)O)CSCC(=O)N[C@@H](Cc2ccccc2)C(=O)N[C@@H](Cc2ccc(O)cc2)C(=O)N[C@@H](CC(=O)O)C1=O [compound 2035] ({CH2CO}-FYD[NHexGly]YLNR[NMeS][Ahp(2)]P[Tle]DC[βAsp][AEEA]D[AEEA][Aun]-OH; thioether N-14),37.1
4,CCCCCCN1CC(=O)N[C@@H](Cc2ccc(O)cc2)C(=O)N[C@@H](CC(C)C)C(=O)N[C@@H](CC(N)=O)C(=O)N[C@@H](CCCNC(=N)N)C(=O)N(C)[C@@H](C(C)O)C(=O)N[C@@H](CCCCC)C(=O)N2CCC[C@H]2C(=O)N[C@@H](C(C)(C)C)C(=O)N[C@@H](CO)C(=O)N[C@H](C(=O)N[C@@H](CC(=O)NCCOCCOCC(=O)N[C@@H](CC(=O)O)C(=O)NCCOCCOCC(=O)NCCCCCCCCCCC(=O)O)C(=O)O)CSCC(=O)N[C@@H](Cc2ccccc2)C(=O)N[C@@H](Cc2ccc(O)cc2)C(=O)N[C@@H](CC(=O)O)C1=O (stereo partly drawn) [compound 2036] ({CH2CO}-FYD[NHexGly]YLNR[NMeThr(3ξ)][Ahp(2)]P[Tle]SC[βAsp][AEEA]D[AEEA][Aun]-OH; thioether N-14),49
5,CCCCCCN1CC(=O)N[C@@H](Cc2ccc(O)cc2)C(=O)N[C@@H](CC(C)C)C(=O)N[C@@H](CC(N)=O)C(=O)N[C@@H](CCCNC(=N)N)C(=O)N(C)[C@@H](C(C)C)C(=O)N[C@@H](CCCCC)C(=O)N2CCC[C@H]2C(=O)N[C@@H](C(C)(C)C)C(=O)N[C@@H](CC(=O)O)C(=O)N[C@H](C(=O)N[C@@H](CC(=O)NCCOCCOCC(=O)N[C@@H](CC(=O)O)C(=O)NCCOCCOCC(=O)NCCCCCCCCCCC(=O)O)C(=O)O)CSCC(=O)N[C@@H](Cc2ccccc2)C(=O)N[C@@H](Cc2ccc(O)cc2)C(=O)N[C@@H](CC(=O)O)C1=O [compound 2037] ({CH2CO}-FYD[NHexGly]YLNR[NMeV][Ahp(2)]P[Tle]DC[βAsp][AEEA]D[AEEA][Aun]-OH; thioether N-14),34.4
6,CCCCCCN1CC(=O)N[C@@H](Cc2ccc(O)cc2)C(=O)N[C@@H](CC(C)C)C(=O)N[C@@H](CC(N)=O)C(=O)N[C@@H](CCCNC(=N)N)C(=O)N(C)[C@@H](C(C)C)C(=O)N[C@@H](CCCCC)C(=O)N2CCC[C@H]2C(=O)N[C@@H](C(C)(C)C)C(=O)N[C@@H](CO)C(=O)N[C@H](C(=O)N[C@@H](CC(=O)NCCOCCOCC(=O)N[C@@H](CC(=O)O)C(=O)NCCOCCOCC(=O)NCCCCCCCCCCC(=O)O)C(=O)O)CSCC(=O)N[C@@H](Cc2ccccc2)C(=O)N[C@@H](Cc2c[nH]c3ccccc23)C(=O)N[C@@H](CC(=O)O)C1=O [compound 2039] ({CH2CO}-FWD[NHexGly]YLNR[NMeV][Ahp(2)]P[Tle]SC[βAsp][AEEA]D[AEEA][Aun]-OH; thioether N-14),23.8
7,CCCCCCN1CC(=O)N[C@@H](Cc2ccc(O)cc2)C(=O)N[C@@H](CC(C)C)C(=O)N[C@@H](CC(N)=O)C(=O)N[C@@H](CCCNC(=N)N)C(=O)N(C)[C@@H](C(C)C)C(=O)N[C@@H](CCCCC)C(=O)N2CCC[C@H]2C(=O)N[C@@H](C(C)(C)C)C(=O)N[C@@H](CC(=O)O)C(=O)N[C@H](C(=O)N[C@@H](CC(=O)NCCOCCOCC(=O)N[C@@H](CC(=O)O)C(=O)NCCOCCOCC(=O)NCCCCCCCCCCC(=O)O)C(=O)O)CSCC(=O)N[C@@H](Cc2ccccc2)C(=O)N[C@@H](Cc2c[nH]c3ccccc23)C(=O)N[C@@H](CC(=O)O)C1=O [compound 2040] ({CH2CO}-FWD[NHexGly]YLNR[NMeV][Ahp(2)]P[Tle]DC[βAsp][AEEA]D[AEEA][Aun]-OH; thioether N-14),40.7

# Next, values leading:
row,IC50 [nM],SMILES
1,29.7,CCCCCCN1CC(=O)N[C@@H](Cc2ccc(O)cc2)C(=O)N[C@@H](CC(C)C)C(=O)N[C@@H](CC(N)=O)C(=O)N[C@@H](CCCNC(=N)N)C(=O)N(C)[C@@H](C(C)C)C(=O)N[C@@H](CCCCC)C(=O)N2CCC[C@H]2C(=O)N[C@@H](C(C)(C)C)C(=O)N[C@@H](CO)C(=O)N[C@H](C(=O)N[C@@H](CC(=O)NCCOCCOCC(=O)N[C@@H](CC(=O)O)C(=O)NCCOCCOCC(=O)NCCCCCCCCCCC(=O)O)C(=O)O)CSCC(=O)N[C@@H](Cc2ccccc2)C(=O)N[C@@H](Cc2ccc(O)cc2)C(=O)N[C@@H](CC(=O)O)C1=O [compound 2041] ({CH2CO}-FYD[NHexGly]YLNR[NMeV][Ahp(2)]P[Tle]SC[βAsp][AEEA]D[AEEA][Aun]-OH; thioether N-14)
2,30.8,CCCCCCN1CC(=O)N[C@@H](Cc2ccc(O)cc2)C(=O)N[C@@H](CC(C)C)C(=O)N[C@@H](CC(N)=O)C(=O)N[C@@H](CCCNC(=N)N)C(=O)N(C)[C@@H](C(C)O)C(=O)N[C@@H](CCCCC)C(=O)N2CCC[C@H]2C(=O)N[C@@H](C(C)(C)C)C(=O)N[C@@H](CC(=O)O)C(=O)N[C@H](C(=O)N[C@@H](CC(=O)NCCOCCOCC(=O)N[C@@H](CC(=O)O)C(=O)NCCOCCOCC(=O)NCCCCCCCCCCC(=O)O)C(=O)O)CSCC(=O)N[C@@H](Cc2ccccc2)C(=O)N[C@@H](Cc2c[nH]c3ccccc23)C(=O)N[C@@H](CC(=O)O)C1=O (stereo partly drawn) [compound 2042] ({CH2CO}-FWD[NHexGly]YLNR[NMeThr(3ξ)][Ahp(2)]P[Tle]DC[βAsp][AEEA]D[AEEA][Aun]-OH; thioether N-14)
3,41.2,CCCCCCN1CC(=O)N[C@@H](Cc2ccc(O)cc2)C(=O)N[C@@H](CC(C)C)C(=O)N[C@@H](CC(N)=O)C(=O)N[C@@H](CCCN)C(=O)N(C)[C@@H](CO)C(=O)N[C@@H](CCCCC)C(=O)N2CCC[C@H]2C(=O)N[C@@H](C(C)(C)C)C(=O)N[C@@H](CC(=O)O)C(=O)N[C@H](C(=O)N[C@@H](CC(=O)NCCOCCOCC(=O)N[C@@H](CC(=O)O)C(=O)NCCOCCOCC(=O)NCCCCCCCCCCC(=O)O)C(=O)O)CSCC(=O)N[C@@H](Cc2ccccc2)C(=O)N[C@@H](Cc2ccc(O)cc2)C(=O)N[C@@H](CC(=O)O)C1=O [compound 2044] ({CH2CO}-FYD[NHexGly]YLN[Orn][NMeS][Ahp(2)]P[Tle]DC[βAsp][AEEA]D[AEEA][Aun]-OH; thioether N-14)
4,20.1,CCCCCCN1CC(=O)N[C@@H](Cc2ccc(O)cc2)C(=O)N[C@@H](CC(C)C)C(=O)N[C@@H](CC(N)=O)C(=O)N[C@@H](CCCN)C(=O)N(C)[C@@H](CCCC)C(=O)N[C@@H](CCCCC)C(=O)N2CCC[C@H]2C(=O)N[C@@H](C(C)(C)C)C(=O)N[C@@H](CO)C(=O)N[C@H](C(=O)N[C@@H](CC(=O)NCCOCCOCC(=O)N[C@@H](CC(=O)O)C(=O)NCCOCCOCC(=O)NCCCCCCCCCCC(=O)O)C(=O)O)CSCC(=O)N[C@@H](Cc2ccccc2)C(=O)N[C@@H](Cc2ccc(O)cc2)C(=O)N[C@@H](CC(=O)O)C1=O [compound 2045] ({CH2CO}-FYD[NHexGly]YLN[Orn][NMeNle][Ahp(2)]P[Tle]SC[βAsp][AEEA]D[AEEA][Aun]-OH; thioether N-14)
5,34.5,CCCCCCN1CC(=O)N[C@@H](Cc2ccc(O)cc2)C(=O)N[C@@H](CCCCN)C(=O)N[C@@H](CC(N)=O)C(=O)N[C@@H](CCCNC(=N)N)C(=O)N(C)[C@@H](CCCC)C(=O)N[C@@H](CCCCC)C(=O)N2CCC[C@H]2C(=O)N[C@@H](C(C)(C)C)C(=O)N[C@@H](CO)C(=O)N[C@H](C(=O)N[C@@H](CC(=O)NCCOCCOCC(=O)N[C@@H](CC(=O)O)C(=O)NCCOCCOCC(=O)NCCCCCCCCCCC(=O)O)C(=O)O)CSCC(=O)N[C@@H](Cc2ccccc2)C(=O)N[C@@H](Cc2ccc(O)cc2)C(=O)N[C@@H](CC(=O)O)C1=O [compound 2046] ({CH2CO}-FYD[NHexGly]YKNR[NMeNle][Ahp(2)]P[Tle]SC[βAsp][AEEA]D[AEEA][Aun]-OH; thioether N-14)
